Source: paper PMC5225183, “Fingerprinting of neurotoxic compounds using a mouse embryonic stem cell dual luminescence reporter assay” (Archives of Toxicology, 2016)

How the values were obtained:
ESC-derived neurons = settings: for In vitro EC20 in ESC-derived neurons: in vitro toxicity data expressed as EC20
Text: Fig. 1 Synopsis of experimental protocols. The impact of compounds on neural promoter activity (FLuc, Firefly Luciferase under the control of the Tα1 promoter), general promoter activity (RLuc, Renilla Luciferase under the control of the EF1α promoter), and amount of DNA (PI, propidium iodide fluorescence in cell homogenates) was investigated in undifferentiated mouse embryonic pluripotent stem cells (ESCs) and on ESC-derived neurons. Arrows indicate the time of measurement of the three parameters. a Protocol for testing compounds effects on ESCs. CGR8-2Luc cells were plated on gelatin-coated 96-well plates in maintenance medium (BHK21 medium containing 10 % FCS, L-glutamine, NEAA, P/S, and LIF). Twenty-four hours later, cells were exposed to compounds for forty-eight hours. b Protocol for testing compounds on ESC-derived neurons. CGR8-2Luc cells were co-cultured with MS5 cells to induce neural differentiation in DMEM medium containing 15 % KO-serum, NEAA, β-mercaptoethanol, and P/S. On day 5, cells were detached and seeded on polyornithine-coated plates in DMEM medium containing N2 supplement, bFGF, and P/S; compound exposure was from day 6 to day 8
To test compounds on ESC-derived neurons, neuronal differentiation was carried out as previously described (Suter et al. [2009]; Xu et al. [2014]). Briefly, CGR8-2Luc cells were seeded on irradiated bone marrow-derived stromal MS5 cells and cultivated for 4 days in DMEM medium containing 15 % Knock-out™ Serum Replacement, non-essential amino acids, beta-mercaptoethanol, and penicillin/streptomycin. At day 5, cells were then re-plated (3 × 10^5 cells/cm^2) on polyornithine-coated 96-well plates in N2 medium containing DMEM, N2 supplement, penicillin/streptomycin, and 10 ng/ml basic human fibroblast growth factor (bFGF) (Invitrogen). […] To assess toxicity of compounds on undifferentiated pluripotent stem cells (ESCs), CGR8-2Luc cells were plated at 45,000 cells/cm^2 on 0.1 % gelatin-coated dishes in BHK21 medium, supplemented with 10 % fetal calf serum, L-glutamine, non-essential amino acids, penicillin/streptomycin, and leukemia inhibitory factor (LIF). After 24 h, compounds were added and incubated for 48 h, before luciferase expression and PI fluorescence were analyzed. In all experiments, methylmercury was used as a positive control at a concentration of 5 µM.
Luciferase activities were measured with a Dual-Luciferase™ Reporter system kit. CGR8-2Luc ES cells were lysed in 96-well plates according to the manufacturer’s instructions. Luminescence measurements were performed on a Fluostar Optima reader. Luminescence counts were expressed as percentage of promoter activity normalized by comparison with the control wells treated by DMSO. […] parameters were measured in homogenates of ESCs and in ESC-derived neurons: (1) FLuc, reflecting the activity of early neural promoter Tα1. FLuc increases during neuronal differentiation. Many neurotoxic compounds may affect FLuc expression, either through impact on neuronal differentiation, through changes of neuronal gene expression, or through killing of neurons.
After measurement of luciferase activity, DNA quantity was determined by PI assay, as previously described (Xu et al. [2014]). […] After incubation, fluorescence intensity was measured on a Flexstation 3 microplate reader (Excitation: 544 nm ± 15 nm; Emission: 620 nm ± 15 nm). Results are expressed as percentage of control. […]

[1] = cited from earlier work
plasma protein = settings: cited from earlier work; for fb,pl (plasma bound fraction): extracted from the literature (geldanamycin value assumed)
[2] = PBPK reverse modeling of nominal equivalent concentration (NEC), rat data
Description: The lipid content and albumin concentrations of the test media N2 and BHK medium were calculated on the basis of the available information provided by the suppliers (Fig. S2A). The data on rat plasma have been adopted from (Verwei et al. [2006]). The original references are (Barber et al. [1990]) for albumin and (DeJongh et al. [1997]) for lipids. Human plasma values were taken from (Gulden and Seibert [2003]). The original data on albumin are from (Lindup [1987]) and for lipids from (Patterson et al. [1988]). Total protein concentrations were calculated based on the assumption that the protein molar mass is similar to the one of albumin (66 kDa). Albumin was assumed to represent 60 and 48 % of the total serum proteins (mg/ml) in human and rat (Baker et al. [1979]; Busher [1990]) (Fig. S2A).
(a) Developmental toxicity (DT)—inducing concentrations were extrapolated from the in vivo study reported in the document by the Australian Therapeutic Goods Administration (Australian Therapeutic Goods Administration [2014]). […] (b) Toxicokinetic parameters of abiraterone in rats were extracted from the available report from the TGA (Australian Therapeutic Goods Administration [2014]). […] (c) The nominal in vitro concentrations equivalent to the concentration used in vivo were calculated using the value of total protein concentration instead of albumin concentration. […]
(c) The nominal in vitro concentrations equivalent to the concentration used in vivo in rats and humans (Cmax and Cavg) were determined assuming only binding to the specific drug-binding proteins (albumin and/or α1-acid glycoprotein) (Fig. S2D).

[3] = extracted from the literature; cited from earlier work

Row | Structure (SMILES) | concentration affecting neural differentiation (decrease of neuronal and general promoter activities) (ESC-derived neurons; ESC-derived neurons, no change in cell number) | In vitro EC20 in ESC-derived neurons (ESC-derived neurons) [µM] | AUC at steady state ([1]; humans, daily oral dose of 1000 mg as abiraterone acetate, ref Goldberg and Berrios-Colon [2013]) [µg·h/mL] | Cmax ([1]; humans, daily oral dose of 1000 mg/kg as abiraterone acetate, ref Goldberg and Berrios-Colon [2013]) [ng/mL] | fb,pl (plasma bound fraction) (plasma protein) | percentage of plasma protein binding (plasma protein; without relevant species differences, ref US FDA [2011]) [%] | Free concentration in vivo ([2]; Cavg) [nM] | Total concentration in vivo (ECpl) ([2]; Cavg) [µM] | Free concentration in vivo ([2]; Cmax) [nM] | Total concentration in vivo (ECpl) ([2]; Cmax) [µM] | Kow (octanol:water partition coefficient) [3] | concentration up to which neurons were not affected (ESC-derived neurons) [nM] | 24 h AUC at steady state ([1]; healthy individuals, daily oral dose of 14 mg, ref Australian Therapeutic Goods Administration [2013]) [µg·h/mL] | average bound fraction in plasma (plasma protein; ref Russo et al. [2013]) [%]
1 | C[C@]12CC[C@H](O)CC1=CC[C@@H]1[C@@H]2CC[C@]2(C)C(c3cccnc3)=CC[C@@H]12 [Abiraterone] | higher than 0.5 µM | 0.7 | 1.173 | 226 | 0.998 | 99.8 | 1.68e-05 | 0.00401 | 0.00013 | 0.0309 | 131826 |  |  | 
2 | COC1=C2C[C@@H](C)C[C@H](OC)[C@H](O)[C@@H](C)/C=C(\C)[C@H](OC(N)=O)[C@@H](OC)/C=C\C=C(/C)C(=O)NC(=CC1=O)C2=O [Geldanamycin] |  | 0.001 |  |  | 0.990 |  |  |  | 8.91 | 2.23 | 417 |  |  | 
3 | [Br][Hg][Br] [Mercury bromide] |  |  |  |  |  |  |  |  |  |  |  | 5000 |  | 
4 | C/C(O)=C(\C#N)C(=O)Nc1ccc(C(F)(F)F)cc1 [Teriflunomide] |  | 10 to 20 |  |  | 0.995 |  | 11.7 | 5.09 | 25.6 | 11.1 | 327 |  | 1070 | 99.46
